Results published in the supplement of paper PMC10307832.

What was measured:
Assay in all cases: relative viability (nuclei count vs DMSO), 5 days (fraction); higher = more cells survive
Settings in all cases: main component drawn
Bleomycin + OSI-027 = compound: CC1=C(N=C(N=C1N)[C@H](CC(=O)N)NC[C@@H](C(=O)N)N)C(=O)N[C@@H]([C@H](C2=CN=CN2)OC3C(C(C(C(O3)CO)O)O)OC4C(C(C(C(O4)CO)O)OC(=O)N)O)C(=O)N[C@H](C)[C@H]([C@H](C)C(=O)N[C@@H]([C@@H](C)O)C(=O)NCCC5=NC(=CS5)C6=NC(=CS6)C(=O)NCCC[S+](C)C)O [Bleomycin] + COc1cccc2cc(-c3nc([C@H]4CC[C@H](C(=O)O)CC4)n4ncnc(N)c34)[nH]c12 [OSI-027] (partner 0.5 µM)
Summary of the method: (§1)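 Medians of duplicate plates are given as relative viability. That measure is the nuclei count in treated wells divided by the count in vehicle wells. Counts were taken on 4× images of lung cancer cell lines in 1536-well plates, 5 days after pin-tool dosing the day after seeding with one drug alone or a fixed anchor-drug dose plus five library-drug doses (not always all listed) in √10 steps.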

Bleomycin + Tozasertib = compound: CC1=C(N=C(N=C1N)[C@H](CC(=O)N)NC[C@@H](C(=O)N)N)C(=O)N[C@@H]([C@H](C2=CN=CN2)OC3C(C(C(C(O3)CO)O)O)OC4C(C(C(C(O4)CO)O)OC(=O)N)O)C(=O)N[C@H](C)[C@H]([C@H](C)C(=O)N[C@@H]([C@@H](C)O)C(=O)NCCC5=NC(=CS5)C6=NC(=CS6)C(=O)NCCC[S+](C)C)O [Bleomycin] + Cc1cc(Nc2cc(N3CCN(C)CC3)nc(Sc3ccc(NC(=O)C4CC4)cc3)n2)n[nH]1 [Tozasertib] (partner 0.1 µM)
Summary of the method: as §1

Bleomycin + Linsitinib = compound: CC1=C(N=C(N=C1N)[C@H](CC(=O)N)NC[C@@H](C(=O)N)N)C(=O)N[C@@H]([C@H](C2=CN=CN2)OC3C(C(C(C(O3)CO)O)O)OC4C(C(C(C(O4)CO)O)OC(=O)N)O)C(=O)N[C@H](C)[C@H]([C@H](C)C(=O)N[C@@H]([C@@H](C)O)C(=O)NCCC5=NC(=CS5)C6=NC(=CS6)C(=O)NCCC[S+](C)C)O [Bleomycin] + C[C@]1(O)C[C@@H](c2nc(-c3ccc4ccc(-c5ccccc5)nc4c3)c3c(N)nccn32)C1 [Linsitinib] (partner 1 µM)
Summary of the method: as §1

Bleomycin + Pictilisib = compound: CC1=C(N=C(N=C1N)[C@H](CC(=O)N)NC[C@@H](C(=O)N)N)C(=O)N[C@@H]([C@H](C2=CN=CN2)OC3C(C(C(C(O3)CO)O)O)OC4C(C(C(C(O4)CO)O)OC(=O)N)O)C(=O)N[C@H](C)[C@H]([C@H](C)C(=O)N[C@@H]([C@@H](C)O)C(=O)NCCC5=NC(=CS5)C6=NC(=CS6)C(=O)NCCC[S+](C)C)O [Bleomycin] + CS(=O)(=O)N1CCN(Cc2cc3nc(-c4cccc5[nH]ncc45)nc(N4CCOCC4)c3s2)CC1 [Pictilisib] (partner 1 µM)
Summary of the method: as §1

Row | Cell Line | relative viability (Bleomycin + OSI-027; first compound 0.01 µM) | relative viability (Bleomycin + OSI-027; first compound 0.03162 µM) | relative viability (Bleomycin + OSI-027; first compound 0.1 µM) | relative viability (Bleomycin + OSI-027; first compound 0.3162 µM) | relative viability (Bleomycin + OSI-027; first compound 1 µM) | relative viability (Bleomycin + Tozasertib; first compound 0.01 µM) | relative viability (Bleomycin + Tozasertib; first compound 0.03162 µM) | relative viability (Bleomycin + Tozasertib; first compound 0.1 µM) | relative viability (Bleomycin + Tozasertib; first compound 0.3162 µM) | relative viability (Bleomycin + Tozasertib; first compound 1 µM) | relative viability (Bleomycin + Linsitinib; first compound 0.01 µM) | relative viability (Bleomycin + Linsitinib; first compound 0.03162 µM) | relative viability (Bleomycin + Linsitinib; first compound 0.1 µM) | relative viability (Bleomycin + Linsitinib; first compound 0.3162 µM) | relative viability (Bleomycin + Linsitinib; first compound 1 µM) | relative viability (Bleomycin + Pictilisib; first compound 0.01 µM) | relative viability (Bleomycin + Pictilisib; first compound 0.03162 µM) | relative viability (Bleomycin + Pictilisib; first compound 0.1 µM) | relative viability (Bleomycin + Pictilisib; first compound 0.3162 µM) | relative viability (Bleomycin + Pictilisib; first compound 1 µM)
1 | NCI-H1975 | 0.566 | 0.638 | 0.435 | 0.153 | 0.132 | 0.485 | 0.466 | 0.42 | 0.152 | 0.0955 | 0.896 | 0.823 | 0.806 | 0.315 | 0.221 | 0.288 | 0.256 | 0.258 | 0.188 | 0.134
2 | NCI-H1993 | 0.541 | 0.483 | 0.513 | 0.535 | 0.422 | 0.505 | 0.501 | 0.551 | 0.575 | 0.539 | 0.736 | 0.745 | 0.693 | 0.59 | 0.518 | 0.647 | 0.807 | 0.794 | 0.681 | 0.688
3 | NCI-H2009 | 0.606 | 0.609 | 0.637 | 0.501 | 0.41 | 0.717 | 0.789 | 0.701 | 0.424 | 0.351 | 1.12 | 1.22 | 1.17 | 0.864 | 0.58 | 0.768 | 0.672 | 0.749 | 0.324 | 0.405
4 | NCI-H2023 | 0.297 | 0.328 | 0.284 | 0.183 | 0.111 | 0.237 | 0.283 | 0.222 | 0.116 | 0.109 | 0.543 | 0.465 | 0.321 | 0.143 | 0.106 | 0.225 | 0.193 | 0.158 | 0.124 | 0.0805
5 | NCI-H2085 | 0.832 | 0.761 | 0.574 | 0.317 | 0.44 | 0.758 | 0.74 | 0.783 | 0.539 | 0.428 | 0.678 | 0.823 | 0.632 | 0.346 | 0.363 | 0.427 | 0.386 | 0.364 | 0.29 | 0.293
6 | NCI-H2087 |  | 0.515 | 0.379 | 0.123 | 0.126 |  | 0.198 | 0.186 | 0.14 | 0.119 | 0.717 | 0.977 | 0.895 | 0.374 | 0.255 | 0.766 | 0.874 | 0.775 | 0.236 | 0.247
7 | NCI-H2126 | 0.644 | 0.774 | 0.738 | 0.522 | 0.585 | 0.736 | 0.865 | 0.861 | 0.421 | 0.32 | 0.641 | 0.756 | 0.687 | 0.645 | 0.546 | 0.498 | 0.471 | 0.501 | 0.391 | 0.365
8 | NCI-H2228 | 0.473 | 0.467 | 0.534 | 0.264 | 0.164 | 0.216 | 0.248 | 0.218 | 0.12 | 0.137 | 0.675 | 0.647 | 0.714 | 0.559 | 0.4 | 0.553 | 0.356 | 0.386 | 0.361 | 0.328
9 | NCI-H2347 | 0.338 | 0.505 | 0.373 | 0.199 | 0.303 | 0.451 | 0.44 | 0.52 | 0.221 | 0.413 | 0.848 | 0.846 | 0.831 | 0.484 | 0.464 | 0.605 | 0.599 | 0.532 | 0.271 | 0.575
